Here are results for 1 compound from paper PMC6541351, “Towards the preparation of synthetic outer membrane vesicle models with micromolar affinity to wheat germ agglutinin using a dialkyl thioglycoside” (Beilstein Journal of Organic Chemistry, 2019).

This assay has as its target T1, wheat germ agglutinin (WGA).
T1 construct: horseradish peroxidase-labelled WGA (WGA-HRP); homodimer
Kind of assay: competitive enzyme-linked lectin assay (ELLA), WGA-HRP vs PAA-GlcNAc. Format: binding, Triticum aestivum.

`CC(=O)N[C@H]1C(O)O[C@H](CO)[C@@H](O)[C@@H]1O` (stereo partly shown) [GlcNAc] displayed an IC50 of 35 mM.
